This passage reports melting point results from patent US6730674B2, “Sulfonyl pyridazinone compounds useful as aldose reductase inhibitors” (Pfizer Inc, priority 2001, dated 2004).

In the case of `O=c1ccc(S(=O)(=O)c2c(F)cc(F)cc2Cl)n[nH]1` [Example 4N, 6-(2-Chloro-4,6-difluoro-benzenesulfonyl)-2H-pyridazin-3-one], the melting point is over 250 °C.
With `Cc1cc(Cl)cc(S(=O)(=O)c2ccc(=O)[nH]n2)c1` [Example 4M, 6-(3-Chloro-5-methyl-benzenesulfonyl)-2H-pyridazin-3-one], the melting point is over 250 °C.
In turn, `O=c1ccc(S(=O)(=O)c2ccc(Cl)c(Cl)c2)n[nH]1` [Example 4D, 6-(3,4-Dichloro-benzenesulfonyl)-2H-pyridazin-3-one] displayed a melting point of 166 to 168 °C.
Turning to `O=c1ccc(S(=O)(=O)c2cccc(Br)c2)n[nH]1` [Example 4I, 6-(3-Bromo-benzenesulfonyl)-2H-pyridazin-3-one], the melting point is over 220 °C.
